Reference: PubChem BioAssay (NCI)
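Values below derive from 48-hour exposures of cells grown in 96-well plates, with endpoints linearly interpolated between the two concentrations bracketing the appropriate inhibition level. TGI marks complete inhibition of growth.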

Key:
Experiment in all cases: NCI tumour cell line growth inhibition, 48 h
NCI-H522 lung = test system: NCI-H522 lung
HT29 colon = test system: HT29 colon
CCRF-CEM leukemia = test system: CCRF-CEM leukemia
LOX IMVI melanoma = test system: LOX IMVI melanoma
SR leukemia = test system: SR leukemia
HOP-62 NSCLC = test system: HOP-62 NSCLC
SW-620 colon = test system: SW-620 colon
T-47D breast = test system: T-47D breast
HOP-92 NSCLC = test system: HOP-92 NSCLC
MDA-MB-435 = test system: MDA-MB-435
OVCAR-4 ovarian = test system: OVCAR-4 ovarian
DU-145 prostate = test system: DU-145 prostate
UACC-257 melanoma = test system: UACC-257 melanoma
COLO 205 colon = test system: COLO 205 colon
MDA-MB-231 breast = test system: MDA-MB-231 breast
BT-549 breast = test system: BT-549 breast
M14 melanoma = test system: M14 melanoma
NCI-H460 lung = test system: NCI-H460 lung
SNB-75 CNS = test system: SNB-75 CNS
OVCAR-5 ovarian = test system: OVCAR-5 ovarian
HCT-15 colon = test system: HCT-15 colon
EKVX NSCLC = test system: EKVX NSCLC
MOLT-4 leukemia = test system: MOLT-4 leukemia
HS 578T breast = test system: HS 578T breast
HCC-2998 colon = test system: HCC-2998 colon
TK-10 renal = test system: TK-10 renal
SF-295 CNS = test system: SF-295 CNS
HCT-116 colon = test system: HCT-116 colon
SK-OV-3 ovarian = test system: SK-OV-3 ovarian
KM12 colon = test system: KM12 colon
OVCAR-8 ovarian = test system: OVCAR-8 ovarian
SK-MEL-5 melanoma = test system: SK-MEL-5 melanoma
SN12C renal = test system: SN12C renal
U251 CNS = test system: U251 CNS
SK-MEL-28 melanoma = test system: SK-MEL-28 melanoma
PC-3 prostate = test system: PC-3 prostate
MCF7 breast = test system: MCF7 breast
MDA-N = test system: MDA-N
UO-31 renal = test system: UO-31 renal
HL-60(TB) leukemia = test system: HL-60(TB) leukemia
NCI-H226 lung = test system: NCI-H226 lung
IGROV1 ovarian = test system: IGROV1 ovarian
K-562 leukemia = test system: K-562 leukemia
UACC-62 melanoma = test system: UACC-62 melanoma
ACHN renal = test system: ACHN renal
SF-539 CNS = test system: SF-539 CNS
OVCAR-3 ovarian = test system: OVCAR-3 ovarian
SF-268 CNS = test system: SF-268 CNS
NCI/ADR-RES ovarian = test system: NCI/ADR-RES ovarian
786-0 renal = test system: 786-0 renal
SNB-19 CNS = test system: SNB-19 CNS
NCI-H23 lung = test system: NCI-H23 lung
RXF 393 renal = test system: RXF 393 renal
A549 NSCLC = test system: A549 NSCLC
CAKI-1 renal = test system: CAKI-1 renal
MALME-3M melanoma = test system: MALME-3M melanoma
SK-MEL-2 melanoma = test system: SK-MEL-2 melanoma

`O=C(CC1C=CCS1(=O)=O)NCc1ccccc1` (centres undefined) was tested, and the TGI (NCI-H522 lung) was over 100 µM, the TGI (HT29 colon) was over 100 µM and the TGI (CCRF-CEM leukemia) was over 100 µM. The TGI (LOX IMVI melanoma) was over 100 µM, the TGI (SR leukemia) was over 100 µM and the TGI (HOP-62 NSCLC) was over 100 µM. The TGI (SW-620 colon) was over 100 µM, the TGI (T-47D breast) was over 100 µM and the TGI (HOP-92 NSCLC) was over 100 µM. For the same molecule, the TGI (MDA-MB-435) was over 100 µM, the TGI (OVCAR-4 ovarian) was over 100 µM and the TGI (DU-145 prostate) was over 100 µM. The TGI (UACC-257 melanoma) was over 100 µM, the TGI (COLO 205 colon) was over 100 µM and the TGI (MDA-MB-231 breast) was over 100 µM. For the same molecule, the TGI (BT-549 breast) was over 100 µM, the TGI (M14 melanoma) was over 100 µM and the TGI (NCI-H460 lung) was over 100 µM. It also gave a TGI (SNB-75 CNS) of over 100 µM, a TGI (OVCAR-5 ovarian) of over 100 µM and a TGI (HCT-15 colon) of over 100 µM. It also gave a TGI (EKVX NSCLC) of over 100 µM, a TGI (MOLT-4 leukemia) of over 100 µM and a TGI (HS 578T breast) of over 100 µM. The TGI (HCC-2998 colon) was over 100 µM, the TGI (TK-10 renal) was over 100 µM and the TGI (SF-295 CNS) was over 100 µM. The TGI (HCT-116 colon) was over 100 µM, the TGI (SK-OV-3 ovarian) was over 100 µM and the TGI (KM12 colon) was over 100 µM. The TGI (OVCAR-8 ovarian) was over 100 µM, the TGI (SK-MEL-5 melanoma) was over 100 µM and the TGI (SN12C renal) was over 100 µM. The TGI (U251 CNS) was over 100 µM, the TGI (SK-MEL-28 melanoma) was over 100 µM and the TGI (PC-3 prostate) was over 100 µM. The TGI (MCF7 breast) was over 100 µM, the TGI (MDA-N) was over 100 µM and the TGI (UO-31 renal) was over 100 µM. For the same molecule, the TGI (HL-60(TB) leukemia) was over 100 µM, the TGI (NCI-H226 lung) was over 100 µM and the TGI (IGROV1 ovarian) was over 100 µM. It also gave a TGI (K-562 leukemia) of over 100 µM, a TGI (UACC-62 melanoma) of over 100 µM and a TGI (ACHN renal) of over 100 µM. The TGI (SF-539 CNS) was over 100 µM, the TGI (OVCAR-3 ovarian) was over 100 µM and the TGI (SF-268 CNS) was over 100 µM. The TGI (NCI/ADR-RES ovarian) was over 100 µM, the TGI (786-0 renal) was over 100 µM and the TGI (SNB-19 CNS) was over 100 µM. It also gave a TGI (NCI-H23 lung) of over 100 µM, a TGI (RXF 393 renal) of over 100 µM and a TGI (A549 NSCLC) of over 100 µM. It also gave a TGI (CAKI-1 renal) of over 100 µM.
`CCOc1ccc2nc(NC(NC(=O)c3cccnc3)(C(F)(F)F)C(F)(F)F)sc2c1` showed a TGI (NCI-H522 lung) of 84.2 µM, a TGI (HT29 colon) of 30.5 µM and a TGI (CCRF-CEM leukemia) of 67.9 µM. For the same molecule, the TGI (SR leukemia) was over 100 µM, the TGI (SW-620 colon) was over 100 µM and the TGI (T-47D breast) was 58.4 µM. It also gave a TGI (HOP-92 NSCLC) of 80.6 µM, a TGI (MDA-MB-435) of 65.4 µM and a TGI (OVCAR-4 ovarian) of over 100 µM. For the same molecule, the TGI (MALME-3M melanoma) was over 100 µM, the TGI (DU-145 prostate) was over 100 µM and the TGI (UACC-257 melanoma) was 69.4 µM. It also gave a TGI (COLO 205 colon) of over 100 µM, a TGI (MDA-MB-231 breast) of over 100 µM and a TGI (BT-549 breast) of over 100 µM. For the same molecule, the TGI (SK-MEL-2 melanoma) was over 100 µM, the TGI (M14 melanoma) was over 100 µM and the TGI (NCI-H460 lung) was over 100 µM. It also gave a TGI (SNB-75 CNS) of 68.2 µM, a TGI (OVCAR-5 ovarian) of over 100 µM and a TGI (HCT-15 colon) of over 100 µM. The TGI (EKVX NSCLC) was 79.4 µM, the TGI (MOLT-4 leukemia) was 55.5 µM and the TGI (HS 578T breast) was over 100 µM. The TGI (HCC-2998 colon) was 84.3 µM, the TGI (TK-10 renal) was over 100 µM and the TGI (SF-295 CNS) was over 100 µM. The TGI (HCT-116 colon) was over 100 µM, the TGI (SK-OV-3 ovarian) was over 100 µM and the TGI (KM12 colon) was over 100 µM. For the same molecule, the TGI (OVCAR-8 ovarian) was 88 µM, the TGI (SK-MEL-5 melanoma) was 49.2 µM and the TGI (SN12C renal) was over 100 µM. It also gave a TGI (U251 CNS) of over 100 µM, a TGI (SK-MEL-28 melanoma) of over 100 µM and a TGI (PC-3 prostate) of 78.6 µM. For the same molecule, the TGI (MCF7 breast) was 91.4 µM, the TGI (MDA-N) was 42.9 µM and the TGI (UO-31 renal) was over 100 µM. The TGI (HL-60(TB) leukemia) was 94.8 µM, the TGI (NCI-H226 lung) was over 100 µM and the TGI (K-562 leukemia) was over 100 µM. It also gave a TGI (UACC-62 melanoma) of 91.6 µM, a TGI (ACHN renal) of over 100 µM and a TGI (SF-539 CNS) of over 100 µM. For the same molecule, the TGI (OVCAR-3 ovarian) was over 100 µM, the TGI (SF-268 CNS) was over 100 µM and the TGI (NCI/ADR-RES ovarian) was 93.3 µM. The TGI (786-0 renal) was 94.3 µM, the TGI (SNB-19 CNS) was over 100 µM and the TGI (NCI-H23 lung) was 65.5 µM. The TGI (RXF 393 renal) was 61.1 µM, the TGI (A549 NSCLC) was over 100 µM and the TGI (CAKI-1 renal) was over 100 µM.
